Data on 20 molecules can be found in patent publication US20240294548A1, “TRICYCLIC SULTAMS AND SULFAMIDES AS ANTITUMOR AGENTS” (PELOTON THERAPEUTICS INC., priority 2021, published 2024).

Test [1] concerns HCT116 human colorectal carcinoma cells. The test can be described thus: CellTiter-Glo assay (cell viability). The format is cell-based. The following applies: HCT-116, 72 h, HCT116 cells, 3 days, CellTiter-Glo luminescence, read-out: CTG IC50. In outline: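 Cells (3,000/well) in DMEM/10% FBS were treated next day with 3-fold serial dilutions (final top […]) in triplicate for 3 days. Viability read by CellTiter-Glo luminescence; IC50 derived from dose-response.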

Test [2] has as its target T1, DCAF15 (DDA1-DDB1ΔB-DCAF15Δpro) (Homo sapiens, UniProt Q66K64, DEL276-383).
T1 construct: made in house; host or cells: Sf9 (Bac-to-Bac baculovirus)
The test can be described thus: DCAF15 displacement assay (displacement FRET, probe PT7795). The following applies: displacement of PT7795 (300 nM), compound 0.01 to 100 μM, 18 hours incubation; read-out: DCAF15 displacement IC50. The format is binding.

Test [3] deals with T2, DCAF15 RBM39 ternary complex (Homo sapiens, UniProt Q14498+Q66K64, DEL276-383).
T2 construct: Amino acids 150 to 331 of RBM39 were cloned into pGEX4T3; GST (from the pGEX4T3 vector, own knowledge) followed by a TEV cleavage site (N); made in house; host or cells: Sf9 baculovirus (DDB1ΔB/DCAF15); E. coli (RBM39 R1R2)
The test can be described thus: DCAF15 RBM39 complex formation assay (FRET). The format is biochemical. The following applies: FRET ratio, 20 nM DDB1DB/DCAF15, 50 nM RBM39 R1R2, overnight at 4° C.; read-out: DCAF15 RBM39 ternary complex EC50. The procedure, abridged: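 Mix of 20 nM DDB1DB/DCAF15, 50 nM RBM39 R1R2, 0.2 nM Eu-anti-6×His and 50 nM APC-anti-FLAG (25 mM HEPES pH 7.5, 100 mM NaCl). Compounds, 1 μM down in 3-fold steps over 14 points, kept overnight at 4 °C.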

T2 sequence (Q66K64 with tags, fused parts or gaps DEL276-383): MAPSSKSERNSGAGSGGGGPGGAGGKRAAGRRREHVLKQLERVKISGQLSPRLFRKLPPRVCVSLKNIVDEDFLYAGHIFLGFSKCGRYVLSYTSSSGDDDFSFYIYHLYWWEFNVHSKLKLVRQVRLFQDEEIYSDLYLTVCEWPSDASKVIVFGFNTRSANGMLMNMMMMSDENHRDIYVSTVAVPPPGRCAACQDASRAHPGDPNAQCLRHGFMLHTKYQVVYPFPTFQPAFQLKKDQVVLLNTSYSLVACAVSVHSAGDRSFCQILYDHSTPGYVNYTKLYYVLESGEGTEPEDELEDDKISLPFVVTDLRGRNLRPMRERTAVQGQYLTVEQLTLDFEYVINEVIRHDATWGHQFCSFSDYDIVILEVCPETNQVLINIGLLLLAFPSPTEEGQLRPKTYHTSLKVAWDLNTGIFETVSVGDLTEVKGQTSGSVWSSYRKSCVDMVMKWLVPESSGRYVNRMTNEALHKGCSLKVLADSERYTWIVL
T2 sequence (Q14498 150-331, stated change not applied): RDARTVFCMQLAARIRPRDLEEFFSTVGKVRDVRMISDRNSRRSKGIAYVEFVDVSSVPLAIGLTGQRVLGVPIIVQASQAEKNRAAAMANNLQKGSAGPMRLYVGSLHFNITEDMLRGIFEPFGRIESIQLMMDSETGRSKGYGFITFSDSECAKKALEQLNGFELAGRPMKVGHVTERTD

Consider `O=S1(=O)Nc2c(cc(Cl)c3c(Cl)c[nH]c23)CN1Cc1ccc(C(F)(F)F)nc1` [Compound 49, 6,7-dichloro-3-((6-(trifluoromethyl)pyridin-3-yl)methyl)-1,3,4,9-tetrahydro-[1,2,6] thiadiazino[4,3-g]indole 2,2-dioxide], for which the half-maximal inhibitory concentration (IC50) in test [1] worked out at 2250 nM; in test [2] it was 8390 nM. Besides, in test [3], the EC50 stood at 0.7 nM.
As for `CC1(C)Cc2cc(Cl)c3c(Cl)c[nH]c3c2NS1(=O)=O` [Compound 66, 6,7-dichloro-3,3-dimethyl-1,3,4,9-tetrahydro-[1,2]thiazino[4,3-g]indole 2,2-dioxide], the values for the 50% inhibitory concentration (IC50) in test [1] and in test [2] were 5000 nM and no less than 100000 nM, respectively. Further, in test [3], the half-maximal effective concentration (EC50) was found to be 108 nM.
For the molecule `O=S1(=O)Nc2c(cc(Cl)c3c(Cl)c[nH]c23)CN1Cc1cnccn1` [Compound 59, 6,7-dichloro-3-(pyrazin-2-ylmethyl)-1,3,4,9-tetrahydro-[1,2,6] thiadiazino[4,3-g]indole 2,2-dioxide], the IC50 in test [1] came out at 120 nM; in test [2], 325 nM. The EC50 in test [3] was 2 nM.
As for `Cc1ccncc1CN1Cc2cc(Cl)c3c(Cl)c[nH]c3c2NS1(=O)=O` [Compound 55, 6,7-dichloro-3-((4-methylpyridin-3-yl)methyl)-1,3,4,9-tetrahydro-[1,2,6] thiadiazino[4,3-g]indole 2,2-dioxide], the IC50 in test [1] was 108 nM; in test [2], 174 nM. Besides, the half-maximal effective concentration (EC50) in test [3] is 1.7 nM.
For the molecule `O=S1(=O)Nc2c(cc(Cl)c3c(Cl)c[nH]c23)CN1Cc1ccc(Cl)cc1` [Compound 13, 6,7-dichloro-3-(4-chlorobenzyl)-1,3,4,9-tetrahydro-[1,2,6] thiadiazino[4,3-g]indole 2,2-dioxide], the values for the IC50 in test [1] and in test [2] were 810 nM and 36100 nM, respectively. Besides, in test [3], the half-maximal effective concentration (EC50) came to 6.2 nM.
With `N#Cc1cccc(CN2Cc3cc(Cl)c4c(Cl)c[nH]c4c3NS2(=O)=O)c1` [Compound 51, 3-((6,7-dichloro-2,2-dioxido-4,9-dihydro-[1,2,6]thiadiazino[4,3-g]indol-3(1H)-yl)methyl) benzonitrile], the IC50 was determined as 283 nM in test [1] and 4410 nM in test [2]. Also, the EC50 in test [3] turned out to be 1.5 nM.
Consider `O=S1(=O)Nc2c(cc(Cl)c3c(Cl)c[nH]c23)CN1CC1CCOC1` (stereo not drawn) [Compound 86, 6,7-dichloro-3-((tetrahydrofuran-3-yl)methyl)-1,3,4,9-tetrahydro-[1,2,6] thiadiazino[4,3-g]indole 2,2-dioxide], for which the figures for the half-maximal inhibitory concentration (IC50) in test [1] and in test [2] were 121 nM and 410 nM, respectively. Further, the EC50 in test [3] was 1.3 nM.
For `O=S1(=O)NCc2nc(Cl)c3c(Cl)c[nH]c3c2N1` [Compound 31, 6,7-dichloro-1,3,4,9-tetrahydropyrrolo[2′,3′:4,5]pyrido[3,2-c][1,2,6]thiadiazine 2,2-dioxide], in that order: 4510 nM, no less than 100000 nM and 263 nM.
Consider `O=S1(=O)Nc2c(cc(Cl)c3c(Cl)c[nH]c23)CN1CC1CC(F)(F)C1` [Compound 85, 6,7-dichloro-3-((3,3-difluorocyclobutyl)methyl)-1,3,4,9-tetrahydro-[1,2,6] thiadiazino[4,3-g]indole 2,2-dioxide], for which the half-inhibitory concentration (IC50) in test [1] amounted to 302 nM; in test [2], 8380 nM. The EC50 in test [3] was 2 nM.
The corresponding values for `N#Cc1c[nH]c2c3c(cc(Cl)c12)CNS(=O)(=O)N3` [Compound 58, 6-chloro-1,3,4,9-tetrahydro-[1,2,6]thiadiazino[4,3-g]indole-7-carbonitrile 2,2-dioxide] are 5000 nM, 14900 nM and 46.2 nM.
On to `O=S1(=O)Nc2c(cc(Cl)c3c(Cl)c[nH]c23)CN1CCCCF` [Compound 18, 6,7-dichloro-3-(4-fluorobutyl)-1,3,4,9-tetrahydro-[1,2,6]thiadiazino[4,3-g]indole 2,2-dioxide], for which the half-maximal inhibitory concentration (IC50) in test [1] is 418 nM; in test [2], 2680 nM. Further, the EC50 in test [3] came to 0.9 nM.
Take `COCC[C@H]1Cc2cc(Cl)c3c(Cl)c[nH]c3c2NS1(=O)=O` (single isomer, unassigned) [Compound 29]: the half-inhibitory concentration (IC50) in test [1] came to 555 nM; in test [2] it was 50500 nM. Further, the EC50 in test [3] came to 1.9 nM.
As to `O=S1(=O)Nc2c(cc(Cl)c3c(Cl)c[nH]c23)CN1Cc1cccc(O)c1` [Compound 73, 6,7-dichloro-3-(3-hydroxybenzyl)-1,3,4,9-tetrahydro-[1,2,6] thiadiazino[4,3-g]indole 2,2-dioxide], the IC50 was 418 nM in test [1] and 1650 nM in test [2]. Besides, in test [3], the EC50 was found to be 1.3 nM.
As for `O=S1(=O)Nc2c(cc(Cl)c3c(Cl)c[nH]c23)CN1c1ccccc1` [Compound 7, 6,7-dichloro-3-phenyl-1,3,4,9-tetrahydro-[1,2,6] thiadiazino[4,3-g]indole 2,2-dioxide], the IC50 in test [1] was 1310 nM; in test [2] it was 17400 nM. The EC50 in test [3] was 8.8 nM.
For `O=S1(=O)Nc2c(cc(Cl)c3c(Cl)c[nH]c23)CN1Cc1cccnc1Cl` [Compound 27, 6,7-dichloro-3-((2-chloropyridin-3-yl)methyl)-1,3,4,9-tetrahydro-[1,2,6]thiadiazino [4,3-g]indole 2,2-dioxide], the IC50 in test [1] was 140 nM; in test [2], 647 nM. Further, the EC50 in test [3] stood at 0.8 nM.
For the molecule `O=S1(=O)Nc2c(cc(Cl)c3c(Cl)c[nH]c23)CN1Cc1ccccc1Cl` [Compound 14, 6,7-dichloro-3-(2-chlorobenzyl)-1,3,4,9-tetrahydro-[1,2,6] thiadiazino[4,3-g] indole 2,2-dioxide], the concentration for half-maximal inhibition (IC50) in test [1] was found to be 218 nM; in test [2], 2320 nM. The EC50 in test [3] turned out to be 3.4 nM.
The corresponding values for `O=S1(=O)Nc2c(cc(Cl)c3c(Cl)c[nH]c23)CN1Cc1cncnc1` [Compound 33, 6,7-dichloro-3-(pyrimidin-5-ylmethyl)-1,3,4,9-tetrahydro-[1,2,6]thiadiazino[4,3-g] indole 2,2-dioxide] are 162 nM, 530 nM and 2.3 nM.
With `O=S1(=O)Nc2c(ccc3c(Cl)c[nH]c23)CN1C1CCCCC1` [Compound 4, 7-chloro-3-cyclohexyl-1,3,4,9-tetrahydro-[1,2,6] thiadiazino[4,3-g]indole 2,2-dioxide], the IC50 in test [1] worked out at 943 nM; in test [2] it was 58100 nM. Moreover, the EC50 in test [3] is 16.1 nM.
As to `O=S1(=O)Nc2c(cc(Cl)c3c(Cl)c[nH]c23)CN1Cc1ccncc1Cl` [Compound 35, 6,7-dichloro-3-((3-chloropyridin-4-yl)methyl)-1,3,4,9-tetrahydro-[1,2,6]thiadiazino [4,3-g]indole 2,2-dioxide], the IC50 in test [1] is 118 nM; in test [2], 210 nM. The EC50 in test [3] amounted to 4 nM.
As for `O=S1(=O)Nc2c(cc(Cl)c3c(Cl)c[nH]c23)CN1CCO` [Compound 24, 6,7-dichloro-3-(2-hydroxyethyl)-1,3,4,9-tetrahydro-[1,2,6] thiadiazino[4,3-g]indole 2,2-dioxide], the half-inhibitory concentration (IC50) turned out to be 799 nM in test [1] and 8300 nM in test [2]. In test [3], the half-maximal effective concentration (EC50) was 3.9 nM.
